Data published in ChEMBL document CHEMBL4261613, “Discovery of a potent orally bioavailable retinoic acid receptor-related orphan receptor-gamma-t (RORγt) inhibitor, S18-000003” (Bioorg Med Chem Lett, 2018).
Converted amounts (≈) assume the structure as drawn.

Legend:
[1] = Solubility of the compound in KH2PO4/Na2HPO4 buffer at pH 6.8 by shake-flask method; format: physicochemical
[2] = biological target: T1, Nuclear receptor ROR-gamma (Homo sapiens, UniProt P51449); assay: Displacement of [3H]-Digoxin from recombinant human GST-fused RORgammat LBD after 1 to 4 hrs by scintillation counting method
T1 sequence (P51449 whole entry): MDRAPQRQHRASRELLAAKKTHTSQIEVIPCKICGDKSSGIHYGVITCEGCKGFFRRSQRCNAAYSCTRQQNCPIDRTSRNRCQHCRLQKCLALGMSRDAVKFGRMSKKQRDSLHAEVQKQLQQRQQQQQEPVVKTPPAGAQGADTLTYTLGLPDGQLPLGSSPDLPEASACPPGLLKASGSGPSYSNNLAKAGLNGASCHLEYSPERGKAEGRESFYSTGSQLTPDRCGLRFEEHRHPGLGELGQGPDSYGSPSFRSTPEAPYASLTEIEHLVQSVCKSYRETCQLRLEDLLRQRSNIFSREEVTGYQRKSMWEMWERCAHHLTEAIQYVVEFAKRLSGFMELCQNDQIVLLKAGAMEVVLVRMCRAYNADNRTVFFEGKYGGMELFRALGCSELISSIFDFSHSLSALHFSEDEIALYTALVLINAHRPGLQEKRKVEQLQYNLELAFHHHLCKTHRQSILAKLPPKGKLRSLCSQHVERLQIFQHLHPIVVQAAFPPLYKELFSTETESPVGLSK

[3] = biological target: T2, Nuclear receptor ROR-beta (Homo sapiens, UniProt Q92753); assay: Transrepression of recombinant human GAL4-DBD fused RORbeta LBD expressed in HEK293 cells after 20 hrs by luciferase reporter gene assay; format: cell-based
T2 sequence (Q92753 whole entry): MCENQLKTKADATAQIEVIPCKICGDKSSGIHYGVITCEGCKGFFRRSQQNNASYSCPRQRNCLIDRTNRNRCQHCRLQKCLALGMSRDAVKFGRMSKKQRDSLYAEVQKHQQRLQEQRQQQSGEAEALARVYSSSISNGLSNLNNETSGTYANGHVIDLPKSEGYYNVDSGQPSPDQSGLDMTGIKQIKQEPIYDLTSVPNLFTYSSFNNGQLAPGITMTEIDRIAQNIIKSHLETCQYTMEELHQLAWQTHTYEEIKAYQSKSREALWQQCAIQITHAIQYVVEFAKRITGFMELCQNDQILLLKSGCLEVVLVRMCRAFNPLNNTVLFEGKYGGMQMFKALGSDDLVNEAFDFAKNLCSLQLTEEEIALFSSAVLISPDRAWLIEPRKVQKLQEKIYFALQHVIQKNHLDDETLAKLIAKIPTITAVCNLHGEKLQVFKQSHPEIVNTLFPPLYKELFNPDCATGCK

[4] = biological target: T3, Nuclear receptor ROR-gamma (Mus musculus) (UniProt P51450); assay: (§1) Transrepression of recombinant mouse GAL4-DBD fused RORgammat LBD expressed in HEK293 cells after 20 hrs by luciferase reporter gene assay; format: cell-based
T3 sequence (whole entry): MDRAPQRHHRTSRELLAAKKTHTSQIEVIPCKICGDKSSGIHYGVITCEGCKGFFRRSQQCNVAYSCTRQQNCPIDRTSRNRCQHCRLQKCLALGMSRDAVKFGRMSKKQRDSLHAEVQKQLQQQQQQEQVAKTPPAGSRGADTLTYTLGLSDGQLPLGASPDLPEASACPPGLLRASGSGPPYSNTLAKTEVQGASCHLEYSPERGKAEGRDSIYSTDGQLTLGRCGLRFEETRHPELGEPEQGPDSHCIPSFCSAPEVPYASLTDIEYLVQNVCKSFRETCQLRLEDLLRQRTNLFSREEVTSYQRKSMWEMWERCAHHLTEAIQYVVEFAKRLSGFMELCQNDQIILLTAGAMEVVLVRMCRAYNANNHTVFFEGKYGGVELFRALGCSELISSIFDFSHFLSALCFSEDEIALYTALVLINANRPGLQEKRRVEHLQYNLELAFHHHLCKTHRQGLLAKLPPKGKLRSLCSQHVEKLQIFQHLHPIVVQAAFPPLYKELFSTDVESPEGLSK

[5] = biological target: T4, Nuclear receptor ROR-gamma (Mus musculus, UniProt P51450); assay: as §1; format: cell-based
T4 sequence (P51450 whole entry): T3 sequence (whole entry)

[6] = Solubility of the compound in NaCl/HCl buffer at pH 1.2 by shake-flask method; format: physicochemical
[7] = biological target: T5, Oxysterols receptor LXR-alpha (Homo sapiens, UniProt Q13133); assay: Transrepression of recombinant human GAL4-DBD fused LXRalpha LBD expressed in HEK293 cells after 20 hrs by luciferase reporter gene assay; format: cell-based
T5 sequence (Q13133 whole entry): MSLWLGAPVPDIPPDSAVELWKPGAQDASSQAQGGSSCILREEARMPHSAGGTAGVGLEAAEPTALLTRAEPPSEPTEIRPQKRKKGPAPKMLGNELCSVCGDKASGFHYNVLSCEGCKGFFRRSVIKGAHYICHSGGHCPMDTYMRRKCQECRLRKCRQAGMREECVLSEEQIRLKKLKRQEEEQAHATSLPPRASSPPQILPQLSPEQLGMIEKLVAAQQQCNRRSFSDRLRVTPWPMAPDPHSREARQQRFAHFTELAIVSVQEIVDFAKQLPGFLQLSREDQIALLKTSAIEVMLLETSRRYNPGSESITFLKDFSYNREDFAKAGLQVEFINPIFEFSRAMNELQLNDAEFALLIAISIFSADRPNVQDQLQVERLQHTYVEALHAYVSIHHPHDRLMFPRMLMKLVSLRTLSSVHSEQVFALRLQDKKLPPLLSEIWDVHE

[8] = biological target: T6, Nuclear receptor ROR-gamma (Homo sapiens) (UniProt P51449); assay: (§2) Transrepression of recombinant human GAL4-DBD fused RORgammat LBD expressed in HEK293 cells after 20 hrs by luciferase reporter gene assay; format: cell-based
T6 sequence (whole entry): T1 sequence (P51449 whole entry)

[9] = biological target: T1, Nuclear receptor ROR-gamma; assay: as §2; format: cell-based
[10] = Stability in human liver microsomes assessed as parent compound remaining after 2 hrs by LC-MS/MS analysis; format: ADME, microsome; settings: read-out: Stability
[11] = biological target: T7, Nuclear receptor ROR-alpha (Homo sapiens, UniProt P35398); assay: Displacement of [3H]T0901317 from recombinant human GST-fused RORalpha LBD after 1 to 4 hrs by microbeta scintillation counting method
T7 sequence (P35398 whole entry): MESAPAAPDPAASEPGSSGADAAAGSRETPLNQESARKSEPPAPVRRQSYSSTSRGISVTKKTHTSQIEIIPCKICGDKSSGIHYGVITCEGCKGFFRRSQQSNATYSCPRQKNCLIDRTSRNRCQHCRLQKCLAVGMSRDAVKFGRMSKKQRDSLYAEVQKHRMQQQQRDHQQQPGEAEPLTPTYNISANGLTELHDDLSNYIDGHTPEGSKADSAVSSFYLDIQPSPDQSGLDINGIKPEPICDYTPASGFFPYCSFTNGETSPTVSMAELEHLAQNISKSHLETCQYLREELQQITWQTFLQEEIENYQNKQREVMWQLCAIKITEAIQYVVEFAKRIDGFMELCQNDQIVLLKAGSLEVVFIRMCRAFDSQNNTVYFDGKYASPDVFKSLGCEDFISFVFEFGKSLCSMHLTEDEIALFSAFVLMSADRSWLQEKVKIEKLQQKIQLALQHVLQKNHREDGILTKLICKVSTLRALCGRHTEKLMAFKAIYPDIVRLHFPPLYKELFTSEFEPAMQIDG

[12] = Stability in rat liver microsomes assessed as parent compound remaining after 2 hrs by LC-MS/MS analysis; format: ADME, microsome; settings: read-out: Stability
[13] = biological target: T8, Oxysterols receptor LXR-beta (Homo sapiens, UniProt P55055); assay: Transrepression of recombinant human GAL4-DBD fused LXRbeta LBD expressed in HEK293 cells after 20 hrs by luciferase reporter gene assay; format: cell-based
T8 sequence (P55055 whole entry): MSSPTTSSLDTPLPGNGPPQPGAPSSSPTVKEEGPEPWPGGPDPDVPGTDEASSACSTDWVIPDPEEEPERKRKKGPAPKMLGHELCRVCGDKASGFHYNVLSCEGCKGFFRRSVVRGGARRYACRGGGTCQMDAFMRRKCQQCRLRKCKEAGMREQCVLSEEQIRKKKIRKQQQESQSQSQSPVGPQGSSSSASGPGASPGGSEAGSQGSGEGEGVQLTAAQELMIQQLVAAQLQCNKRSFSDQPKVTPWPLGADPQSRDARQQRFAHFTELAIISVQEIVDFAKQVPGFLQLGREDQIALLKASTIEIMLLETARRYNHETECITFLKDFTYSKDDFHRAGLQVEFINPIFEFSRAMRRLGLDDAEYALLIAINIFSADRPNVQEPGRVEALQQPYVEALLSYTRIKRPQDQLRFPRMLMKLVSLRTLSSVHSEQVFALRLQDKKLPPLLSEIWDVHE

[14] = biological target: T4, Nuclear receptor ROR-gamma; assay: Transrepression of RORgammat in anti-CD3/CD28 stimulated C57BL/6 mouse CD4-positive T cells assessed as suppression of T cell differentiation to Th17 cells by measuring reduction in IL-17A level after 4 days by ELISA

CCS(=O)(=O)c1ccc(CC(=O)Nc2ccc(C(C)(C)C(=O)Nc3ccc(F)cc3)cc2)cc1
solubility thermodynamic [1]: 31 µM (≈ 15 µg/mL) | IC50 [2]: < 0.03 µM | IC50 [3]: > 10 µM | Efficacy [4]: 78% | IC50 [5]: 0.55 µM | solubility thermodynamic [6]: 39 µM (≈ 18.8 µg/mL) | EC50 [7]: > 30 µM | Efficacy [8]: 93% | IC50 [9]: 0.033 µM | remaining at 2 h [10]: 75% | IC50 [11]: > 10 µM | remaining at 2 h [12]: 70% | EC50 [13]: > 30 µM | IC50 [14]: 1.1 µM
